# Where two headings read alike, the source gives them in different places.
# What was measured:
# 229E Mpro = 229E Mpro (Human coronavirus 229E, UniProt P0C6X1); assay: 229E Mpro enzymatic assay (standard methods, SARS-CoV2 Mpro assay given as exemplary); format: biochemical, human coronavirus (HCov) 229E
# Method in brief: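 Run by standard methods, with the SARS-CoV-2 Mpro protocol given as the model: E. coli-expressed C-His6 protease at 25 nM and substrate at 25 μM (Km 13.5 μM). Buffer pH 7.3 with 5 mM TCEP and 0.1% BSA; % inhibition versus controls fitted to variable-slope log(inhibitor)-response for IC50.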
# HCov OC43 = assay: HCoV OC43 cytopathic effect (CPE) assay, CellTiter Glo; format: cell-based, human coronavirus (HCov) OC43
# [1] = target: COVID-19 (nCoV-2019, SARS-CoV2) Mpro (Severe acute respiratory syndrome coronavirus 2, UniProt P0DTD1); assay: COVID-19 (nCoV-2019, SARS-CoV2) Mpro enzymatic assay; format: biochemical; settings: 25 nM Mpro, 25 μM substrate; read-out: COVID-19 Mpro IC50
# [2] = Betacoronavirus 1, OC43, read-out: OC43 IC50 (uM) MEDIAN, median
# [3] = read-out: OC43 IC50 (uM) MEDIAN, median
# Chain of 229E Mpro (P0C6X1 2966-3267): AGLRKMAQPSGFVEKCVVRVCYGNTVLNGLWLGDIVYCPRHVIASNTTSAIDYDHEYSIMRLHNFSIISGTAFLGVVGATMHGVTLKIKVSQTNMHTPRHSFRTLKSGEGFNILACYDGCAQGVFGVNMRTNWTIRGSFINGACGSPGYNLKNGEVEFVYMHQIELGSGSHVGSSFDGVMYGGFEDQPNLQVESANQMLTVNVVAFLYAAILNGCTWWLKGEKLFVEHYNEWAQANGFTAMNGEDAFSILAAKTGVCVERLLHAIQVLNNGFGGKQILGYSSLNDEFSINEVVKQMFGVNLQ
smiles,measurement,setting,value
"CC(C)(C)c1ccc(N(C(=O)[C@H]2CC(F)(F)CN2C#N)C(C(=O)NC2CCCCC2)c2cccnc2)cc1 (single isomer, unassigned) [Compound 876 Isomer 2]",EC50,229E Mpro; read-out: 229E Mpro EC50,< 2000 nM
same,IC50,"HCov OC43; read-out: OC43 IC50 (uM) MEDIAN, median, listed as 876 Isomer 2",> 30 µM
same,IC50,[1],10000 to 30000 nM
"CC(C)(C)c1ccc(N(C(=O)[C@H]2CCCN2C#N)C(C(=O)N2CC(=O)C2)c2cccnc2)cc1 (stereo partly drawn) [Compound 946b, (2R)—N-(4-(tert-butyl)phenyl)-1-cyano-N-(2-oxo-2-(3-oxoazetidin-1-yl)-1-(pyridin-3-yl)ethyl)pyrrolidine-2-carboxamide]",EC50,229E Mpro; 229E Mpro EC50,2000 to 10000 nM
same,IC50,HCov OC43; [2],10 to 30 µM
same,IC50,[1],10000 to 30000 nM
"CC1(C)CN(C#N)[C@@H](C(=O)N(c2ccc(C(C)(C)C)cc2)C(C(=O)NC2CCOCC2)c2cccnc2)CO1 (single isomer, unassigned) [1141 Isomer 4]",EC50,229E Mpro; 229E Mpro EC50,< 2000 nM
same,IC50,HCov OC43; [3],10 to 30 µM
same,IC50,[1],10000 to 30000 nM
"Cc1ccncc1C(C(=O)NC1CCC(F)(F)CC1)N(C(=O)[C@H]1C[C@@](C)(O)CN1C#N)c1ccc(S(F)(F)(F)(F)F)cc1 (stereo partly drawn) [Compound 993c, (2R,4R)-1-cyano-N-[2-[(4,4-difluorocyclohexyl)amino]-1-(4-methyl-3-pyridyl)-2-oxo-ethyl]-4-hydroxy-4-methyl-N-[4-(pentafluoro-λ6-sulfanyl)phenyl]pyrrolidine-2-carboxamide]",EC50,229E Mpro; 229E Mpro EC50,< 2000 nM
same,IC50,HCov OC43; [2],2 to 10 µM
same,IC50,[1],< 2000 nM
"CC(C)(C)c1ccc(N(C(=O)[C@H]2CCC(C)(C)N2C#N)C(C(=O)NC2CCCCC2)c2cccnc2)cc1 (single isomer, unassigned) [Compound 262 Isomer 1]",EC50,229E Mpro; 229E Mpro EC50,> 30000 nM
same,IC50,"HCov OC43; read-out: OC43 IC50 (uM) MEDIAN, median, listed as 262 Isomer 1",> 30 µM
same,IC50,[1],> 30000 nM
"CC(C)(C)c1ccc(N(C(=O)[C@H]2CCC(C)(C)N2C#N)C(C(=O)NC2CCCCC2)c2cccnc2)cc1 (single isomer, unassigned) [Compound 262 Isomer 2]",EC50,229E Mpro; 229E Mpro EC50,< 2000 nM
same,IC50,"HCov OC43; read-out: OC43 IC50 (uM) MEDIAN, median, listed as 262 Isomer 2",10 to 30 µM
same,IC50,[1],2000 to 10000 nM
"CO[C@@H]1C[C@H](C(=O)N(c2ccc(S(F)(F)(F)(F)F)cc2)C(C(=O)NC2CCC(F)(F)CC2)c2cncc(F)c2)N(C#N)C1 (single isomer, unassigned) [1265 Isomer 2]",EC50,229E Mpro; read-out: 229E Mpro EC50,< 2000 nM
same,IC50,HCov OC43; [3],< 2 µM
same,IC50,[1],< 2000 nM
CC(C)(C)c1ccc(N(C(=O)[C@H]2CCCN2C#N)C(C(=O)NCc2ccccn2)c2cccnc2)cc1 (stereo partly drawn) [Compound 443],EC50,229E Mpro; 229E Mpro EC50,< 2000 nM
same,IC50,HCov OC43; [2],10 to 30 µM
same,IC50,[1],2000 to 10000 nM
"CO[C@@H]1C[C@H](C(=O)N(c2ccc(S(F)(F)(F)(F)F)cc2)C(C(=O)NC(C)C2CCCCN2C(=O)OC(C)(C)C)c2cccnc2)N(C#N)C1 (single isomer, unassigned) [1303 Isomer 2.2]",EC50,229E Mpro; 229E Mpro EC50,< 2000 nM
same,IC50,HCov OC43; [3],< 2 µM
same,IC50,[1],< 2000 nM
"CO[C@@H]1C[C@H](C(=O)N(c2ccc(S(F)(F)(F)(F)F)cc2)C(C(=O)NC2CCC(F)(F)CC2)c2ccnnc2)N(C#N)C1 (stereo partly drawn) [Compound 1320, (2R,4R)-1-cyano-N-[2-[(4,4-difluorocyclohexyl)amino]-2-oxo-1-pyridazin-4-yl-ethyl]-4-methoxy-N-[4-(pentafluoro-λ6-sulfanyl)phenyl]pyrrolidine-2-carboxamide]",EC50,229E Mpro; 229E Mpro EC50,> 30000 nM
same,IC50,HCov OC43; [2],> 30 µM
same,IC50,[1],> 30000 nM
O=C1CCCCC1C(=O)N(c1ccc(S(F)(F)(F)(F)F)cc1)C(C(=O)NC1CCC(F)(F)CC1)c1cncc(F)c1 (stereo not drawn) [Compound 1114],EC50,229E Mpro; 229E Mpro EC50,2000 to 10000 nM
same,IC50,HCov OC43; [2],> 30 µM
same,IC50,[1],10000 to 30000 nM
"CO[C@@H]1C[C@H](C(=O)N(c2ccc(S(F)(F)(F)(F)F)cc2)C(C(=O)N2CCCC3(COC3)C2)c2cccnc2)N(C#N)C1 (single isomer, unassigned) [Compound 1175]",EC50,229E Mpro; 229E Mpro EC50,< 2000 nM
same,IC50,HCov OC43; [3],< 2 µM
same,IC50,[1],2000 to 10000 nM
"N#CN1CC(F)(F)C[C@@H]1C(=O)N(c1ccc(S(F)(F)(F)(F)F)cc1)C(C(=O)NC1CCC(F)(F)CC1)c1cccnc1 (single isomer, unassigned) [1087 Isomer 2]",EC50,229E Mpro; read-out: 229E Mpro EC50,< 2000 nM
same,IC50,HCov OC43; [3],> 30 µM
same,IC50,[1],2000 to 10000 nM
"CO[C@@H]1C[C@H](C(=O)N(c2ccc(S(F)(F)(F)(F)F)cc2)C(C(=O)N(C)CC(=O)NC2CC2)c2cccnc2)N(C#N)C1 (single isomer, unassigned) [Compound 1122]",EC50,229E Mpro; 229E Mpro EC50,< 2000 nM
same,IC50,HCov OC43; [2],< 2 µM
same,IC50,[1],< 2000 nM
"CO[C@@H]1C[C@H](C(=O)N(c2ccc(S(F)(F)(F)(F)F)cc2)C(C(=O)NC2CCOC(C)(C)C2)c2cccnc2)N(C#N)C1 (single isomer, unassigned) [1165 Isomer 2]",EC50,229E Mpro; read-out: 229E Mpro EC50,< 2000 nM
same,IC50,HCov OC43; [3],2 to 10 µM
same,IC50,[1],10000 to 30000 nM
"N#CN1CC(=O)NCC1C(=O)N(c1ccc(S(F)(F)(F)(F)F)cc1)C(C(=O)NC1CCC(F)(F)CC1)c1cncc(F)c1 (stereo not drawn) [Compound 1160, 1-cyano-N-[2-[(4,4-difluorocyclohexyl)amino]-1-(5-fluoro-3-pyridyl)-2-oxo-ethyl]-5-oxo-N-[4-(pentafluoro-λ^6-sulfanyl)phenyl]piperazine-2-carboxamide]",EC50,229E Mpro; 229E Mpro EC50,< 2000 nM
same,IC50,HCov OC43; [2],< 2 µM
same,IC50,[1],< 2000 nM
"CC(C)(C)c1ccc(N(C(=O)[C@H]2C[C@@](C)(O)CN2C#N)C(C(=O)NC2CCOCC2)c2cccnc2)cc1 (single isomer, unassigned) [1142 Isomer 1]",EC50,229E Mpro; 229E Mpro EC50,< 2000 nM
same,IC50,HCov OC43; [3],< 2 µM
same,IC50,[1],< 2000 nM
"CO[C@@H]1C[C@H](C(=O)N(c2ccc(S(F)(F)(F)(F)F)cc2)C(C(=O)NCCc2cc(F)cc(F)c2)c2cccnc2)N(C#N)C1 (single isomer, unassigned) [1196 Isomer 2]",EC50,229E Mpro; read-out: 229E Mpro EC50,< 2000 nM
same,IC50,HCov OC43; [3],< 2 µM
same,IC50,[1],< 2000 nM
"CO[C@@H]1C[C@H](C(=O)N(c2ccc(S(F)(F)(F)(F)F)cc2)C(C(=O)NC(C)C2CCCCN2C(=O)OC(C)(C)C)c2cccnc2)N(C#N)C1 (single isomer, unassigned) [1303 Isomer 1]",EC50,229E Mpro; 229E Mpro EC50,< 2000 nM
same,IC50,HCov OC43; [3],2 to 10 µM
same,IC50,[1],2000 to 10000 nM
"CO[C@@H]1C[C@H](C(=O)N(c2ccc(S(F)(F)(F)(F)F)cc2)C(C(=O)NC2CCC(F)(F)CC2)c2cncc(F)c2)N(C#N)C1 (single isomer, unassigned) [1265 Isomer 1]",EC50,229E Mpro; 229E Mpro EC50,< 2000 nM
same,IC50,HCov OC43; [2],< 2 µM
same,IC50,[1],< 2000 nM
"CO[C@@H]1C[C@H](C(=O)N(c2ccc(S(F)(F)(F)(F)F)cc2)C(C(=O)NCCc2cc(F)cc(F)c2)c2cccnc2)N(C#N)C1 (single isomer, unassigned) [1196 Isomer 1]",EC50,229E Mpro; 229E Mpro EC50,< 2000 nM
same,IC50,HCov OC43; [2],2 to 10 µM
same,IC50,[1],2000 to 10000 nM
"N#CN1C[C@H](F)C[C@@H]1C(=O)N(c1ccc(S(F)(F)(F)(F)F)cc1)C(C(=O)NC1CCC(F)(F)CC1)c1cncc(F)c1 (single isomer, unassigned) [Compound 1098 Isomer 1]",EC50,229E Mpro; 229E Mpro EC50,< 2000 nM
same,IC50,HCov OC43; [2],2 to 10 µM
same,IC50,[1],2000 to 10000 nM
"C[C@H](NC(=O)C(c1cncc(F)c1)N(C(=O)[C@H]1C[C@@](C)(O)CN1C#N)c1ccc(-c2ccccc2)cc1)c1ccccc1 (single isomer, unassigned) [1345 Isomer 1]",EC50,229E Mpro; 229E Mpro EC50,< 2000 nM
same,IC50,HCov OC43; [3],< 2 µM
same,IC50,[1],< 2000 nM
"O=C(NC1CCC(F)(F)CC1)C(c1cncc(F)c1)N(C(=O)c1cnc[nH]1)c1ccc(S(F)(F)(F)(F)F)cc1 (single isomer, unassigned) [1337 Isomer 1, N-[2-[(4,4-difluorocyclohexyl)amino]-1-(5-fluoro-3-pyridyl)-2-oxo-ethyl]-N-[4-(pentafluoro-λ6-sulfanyl)phenyl]-1H-imidazole-5-carboxamide]",EC50,229E Mpro; 229E Mpro EC50,2000 to 10000 nM
same,IC50,HCov OC43; [2],> 30 µM
same,IC50,[1],10000 to 30000 nM
"CO[C@@H]1C[C@H](C(=O)N(c2ccc(S(F)(F)(F)(F)F)cc2)C(C(=O)NCC2(C)COC2)c2cccnc2)N(C#N)C1 (single isomer, unassigned) [1176 Isomer 2]",EC50,229E Mpro; read-out: 229E Mpro EC50,< 2000 nM
same,IC50,HCov OC43; [3],2 to 10 µM
same,IC50,[1],10000 to 30000 nM
"CC1(C)CN(C#N)[C@@H](C(=O)N(c2ccc(C(C)(C)C)cc2)C(C(=O)NC2CCOCC2)c2cccnc2)CO1 (single isomer, unassigned) [1141 Isomer 2]",EC50,229E Mpro; 229E Mpro EC50,< 2000 nM
same,IC50,HCov OC43; [3],2 to 10 µM
same,IC50,[1],< 2000 nM
"CC(C)(C#N)C(=O)N(c1ccc(S(F)(F)(F)(F)F)cc1)C(C(=O)NC1CCC(F)(F)CC1)c1cncc(F)c1 (single isomer, unassigned) [Compound 1316 Isomer 2, 2-Cyano-N-[2-[(4,4-difluorocyclohexyl)amino]-1-(5-fluoro-3-pyridyl)-2-oxo-ethyl]-2-methyl-N-[4-(pentafluoro-λ6-sulfanyl)phenyl]propanamide]",EC50,229E Mpro; 229E Mpro EC50,> 30000 nM
same,IC50,HCov OC43; [3],> 30 µM
same,IC50,[1],> 30000 nM

# Source: patent US20220380347A1, “INHIBITORS OF CYSTEINE PROTEASES AND METHODS OF USE THEREOF” (Pardes Biosciences, Inc., priority 2020, published 2022)
